According to BindingDB's records for doi:10.1021/jm00137a012 (1981):

Molecular target: T1, Dihydrofolate reductase (Bos taurus, UniProt P00376)
T1 sequence (P00376 whole entry): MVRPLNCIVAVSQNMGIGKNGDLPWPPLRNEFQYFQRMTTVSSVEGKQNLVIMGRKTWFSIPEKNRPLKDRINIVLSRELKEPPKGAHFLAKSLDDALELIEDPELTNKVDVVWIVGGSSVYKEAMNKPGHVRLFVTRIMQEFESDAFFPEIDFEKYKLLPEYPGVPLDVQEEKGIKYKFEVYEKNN
Experiment: Inhibition of dihydrofolate reductase from bovine liver

SMILES | Ki
Nc1ncc(Cc2cc(CO)cc(CO)c2)c(N)n1 | 50.1 µM
Nc1ncc(Cc2ccc(OC(F)(F)F)cc2)c(N)n1 | 3.8 µM
Nc1ncc(Cc2cccc(I)c2)c(N)n1 | 0.708 µM
COCc1cccc(Cc2cnc(N)nc2N)c1 | 3.24 µM
Cc1ccc(Cc2cnc(N)nc2N)cc1 | 15.8 µM
CCCCOc1ccc(Cc2cnc(N)nc2N)cc1 | 1.82 µM
Nc1ncc(Cc2cccc(O)c2)c(N)n1 [3-(2,4-Diamino-pyrimidin-5-ylmethyl)-phenol] | 13.2 µM
COCCOc1c(OC)cc(Cc2cnc(N)nc2N)cc1OC [5-[3,5-Dimethoxy-4-(2-methoxy-ethoxy)-benzyl]-pyrimidine-2,4-diamine] | 13.2 µM

Further compounds by falling Ki, results first:

Ki | SMILES
26.9 µM | Nc1ccc(Cc2cnc(N)nc2N)cc1
7.08 µM | COc1ccc(Cc2cnc(N)nc2N)cc1OC [Diaveridine]
6.92 µM | CC(=O)Nc1ccc(Cc2cnc(N)nc2N)cc1[N+](=O)[O-]
6.31 µM | Nc1ncc(Cc2cccc(CO)c2)c(N)n1
2.95 µM | Nc1ncc(Cc2cccc(C(F)(F)F)c2)c(N)n1
2.63 µM | CS(=O)(=O)Oc1cccc(Cc2cnc(N)nc2N)c1
1.38 µM | CCCCOCc1cccc(Cc2cnc(N)nc2N)c1
